Data as given in EP0535241A1, “NOVEL LEUCINE AMINOPEPTIDASE” (SUNTORY LIMITED, priority 1991, dated 1992).

Target: T1, leucine aminopeptidase of human placenta origin (PLAP), purified from human retroplacental sera, containing SEQ ID NOs: 1, 2, 3 and 4 (Homo sapiens, UniProt Q9UIQ6)
T1 construct: PLAP was purified by fractionating 900 ml of retroplacental sera by ammonium sulfate fractionation; from tissue; host or cells: human retroplacental sera
Test: PLAP enzyme assay with L-leucyl-P-nitroanilide as substrate (Lineweaver-Burk plot)
Format: biochemical
Description: An assay of PLAP was carried out according to a method of Kurauchi et al. (Kurauchi, O. et al. Enzyme, 35, p197-205, 1986) using L-leucyl-P-nitroanilide as a substrate. Namely, a substrate adjusted to 1.6 mM of a final concentration was added to a 20 mM Tris-HCl buffer (pH 7.2) (1.0 ml) in the presence of a 20 mM L-methionine, and the mixture was incubated at 37°C for 10 minutes. After finishing the reaction, 3.0 ml of a 1M acetate buffer (pH 4.2) was added to terminate the reaction, and the amount of released P-nitroanilide was measured by absorption of 405 nm. One unit of the enzyme is defined as an activity of the enzyme that releases 1 µ mole of the P-nitroanilide for one minute.

[1] = purified PLAP, calculated according to Lineweaver-Burk plot, 20 mM Tris-HCl buffer (pH 7.2), 37°C

T1 sequence (Q9UIQ6 155-1025 limits assumed): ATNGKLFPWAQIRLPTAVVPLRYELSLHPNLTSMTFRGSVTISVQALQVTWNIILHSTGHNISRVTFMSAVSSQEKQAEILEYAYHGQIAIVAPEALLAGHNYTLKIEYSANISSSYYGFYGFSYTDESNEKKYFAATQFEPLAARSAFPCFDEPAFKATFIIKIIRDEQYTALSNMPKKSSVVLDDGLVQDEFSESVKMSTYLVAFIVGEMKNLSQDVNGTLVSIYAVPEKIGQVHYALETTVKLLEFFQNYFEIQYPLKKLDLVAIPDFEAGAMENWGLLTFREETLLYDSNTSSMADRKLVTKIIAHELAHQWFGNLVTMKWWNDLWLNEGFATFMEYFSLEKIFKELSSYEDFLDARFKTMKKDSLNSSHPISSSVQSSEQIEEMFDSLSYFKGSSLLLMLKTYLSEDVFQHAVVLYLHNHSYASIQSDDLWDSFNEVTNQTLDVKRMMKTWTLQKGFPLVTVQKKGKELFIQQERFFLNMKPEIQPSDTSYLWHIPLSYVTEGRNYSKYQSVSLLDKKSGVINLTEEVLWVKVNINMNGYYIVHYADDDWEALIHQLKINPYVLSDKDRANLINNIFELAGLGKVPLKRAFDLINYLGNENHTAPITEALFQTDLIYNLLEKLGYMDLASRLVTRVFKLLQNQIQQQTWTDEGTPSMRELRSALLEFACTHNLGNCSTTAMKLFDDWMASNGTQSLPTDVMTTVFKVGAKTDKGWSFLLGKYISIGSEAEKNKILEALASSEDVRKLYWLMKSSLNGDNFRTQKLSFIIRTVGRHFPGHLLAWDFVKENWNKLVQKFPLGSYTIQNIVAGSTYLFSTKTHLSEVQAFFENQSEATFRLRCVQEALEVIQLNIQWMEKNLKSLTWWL

Compound	Km value for degradation of L-Leucyl-P-nitroanilide [1]	Vmax for degradation of L-Leucyl-P-nitroanilide [1]	inhibition of L-leucyl-P-nitroanilide degrading activity by L-methionine (assay carried out in the presence of 20 mM L-methionine, substrate 1.6 mM)
CC(C)C[C@H](N)C(=O)Nc1ccc([N+](=O)[O-])cc1 [L-Leucyl-P-nitroanilide]	4.17 mM	108 µmol/min/g	
CSCC[C@H](N)C(=O)O [L-methionine]			not inhibited
